# In PMC2907371, “Antiviral biflavonoids from Radix Wikstroemiae (Liaogewanggen)” (Chinese Medicine, 2010):
# How the values were obtained:
# RSV (long strain, VR-26) = assay: CPE reduction assay, in vitro antiviral activity against RSV; format: cell-based, respiratory syncytial virus; conditions: for anti-RSV activity (in words): in vitro; for IC50: human respiratory syncytial virus, concentration that reduced 50% of CPE in respect to virus control, RSV in HEp-2 cells, mean (SD), n = 3; for SI: ratio of CC50 to IC50
# Protocol: (§1) Human larynx epidermoid carcinoma cell line (HEp-2, CCL-23) and RSV (long strain, VR-26) were purchased from the American Type Culture Collection (ATCC, USA). The cells were grown in Eagle's minimum essential medium (EMEM) (Gibco, USA) supplemented with 10% fetal bovine serum (FBS) (Gibco, USA), 25 μg/ml gentamicin (Sigma, USA) and […] L-glutamine (Sigma, USA) (growth medium). Virus-infected cells were maintained in EMEM with 1% FBS, 25 μg/ml gentamicin and […] L-glutamine (maintenance medium). All the cells were cultured at 37°C in a humidified atmosphere supplied with 5% CO2. Virus titers were determined by the 50% tissue culture infective dose (TCID50) method.
# CPE reduction assay was adopted for screening the in vitro antiviral activity as described in the previous study. Briefly, 0.1 ml of 100 TCID50 virus suspension and serial two-fold dilutions of the tested samples were added simultaneously to confluent cell monolayers in a 96-well plate. Virus suspension and maintenance medium without samples were added as the virus control and cell control, respectively. The plates were incubated at 37°C in a humidified CO2 atmosphere for 3-5 days. The virus-induced CPE was scored against the virus control under a light microscope. Ribavirin (Sigma, USA) was used as positive control in this experiment.
# [1] = Cytotoxicity assay (MTT method); format: cell-based; conditions: human, concentration with half maximal inhibition on growth and survival of HEp-2 cells, mean (SD), n = 3
# Protocol: as §1
# Cell viability was tested by the 3-(4,5-dimethylthiazol-2-yl)-2,5-diphenyl tetrazolium bromide (MTT) method as described in previous study. Briefly, 100 μl of two-fold diluted samples were added to a 96-well plate containing confluent cell monolayer in triplicates while the dilution medium without the sample was the control. After 72 hours of incubation, 12 μl of the MTT solution (5 mg/ml in phosphate buffered saline) was added to each well. The trays were further incubated for four hours for the formation of blue formazan. After the supernatant was removed, the blue formazan was solubilized in 100 μl DMSO and the optical density (OD) was measured at 570 nm with a microplate reader.
# HIV-1 = test system: HIV-1; parameters: method as in PMID 10985087; conditions: cited from earlier work
SMILES,"anti-RSV activity (in words) (RSV (long strain, VR-26); CPE reduction assay)","IC50 (RSV (long strain, VR-26)) [µM]","SI (RSV (long strain, VR-26))",CC50 at 72 h [1] [µM],activity against HIV-1 in vitro (in words) (HIV-1),"anti-RSV activity (in words) (RSV (long strain, VR-26); CPE reduction assay, listed as neochamaejasmin B)","IC50 (symbol) (RSV (long strain, VR-26); CPE reduction assay, highest concentration tested = maximal non-cytotoxic concentration)"
"O=C1C=C2O[C@H](c3ccc(O)cc3)[C@@]3(O)C(=O)c4c(O)cc(O)cc4O[C@@]23C2=C1C[C@@H](O)[C@@H](c1ccc(O)cc1)O2 [Compound IV, stelleranol]",potent anti-RSV activity,10.2,15.8,162,,,
O=C1c2c(O)cc(O)cc2O[C@@]12c1c(cc(O)c3c1O[C@H](c1ccc(O)cc1)[C@@H](O)C3)O[C@@H]2c1ccc(O)cc1 [genkwanol A],,,,,moderately active,,
"O=C1C=C2O[C@@H](c3ccc(O)cc3)[C@]3(O)C(=O)c4c(O)cc(O)cc4O[C@]23C2=C1C[C@H](O)[C@@H](c1ccc(O)cc1)O2 [Compound II, genkwanol B]",potent anti-RSV activity,9.6,11.0,106,,,
COc1cc(C[C@@H]2COC(=O)[C@@]2(O)Cc2ccc(O)c(OC)c2)ccc1O [(+)-nortrachelogenin],,,,,moderately active,,
"NC(=O)c1ncn([C@@H]2O[C@H](CO)[C@@H](O)[C@H]2O)n1 [Ribavirin, reference compound]",,11.9,21.6,256,,,
O=c1c(-c2c(O)cc(O)c3c2O[C@H](c2ccc(O)cc2)[C@@H](O)C3)c(-c2ccc(O)cc2)oc2cc(O)cc(O)c12 [wikstrol B],,,,,moderately active,,
"O=C1C=C2O[C@H](c3ccc(O)cc3)[C@@]3(O)C(=O)c4c(O)cc(O)cc4O[C@@]23C2=C1C[C@H](O)[C@@H](c1ccc(O)cc1)O2 [Compound III, genkwanol C]",potent anti-RSV activity,6.6,21.9,145,,,
O=C(c1c(O)cc(O)cc1O)c1c(-c2ccc(O)cc2)oc2cc(O)c3c(c12)O[C@H](c1ccc(O)cc1)[C@@H](O)C3 [daphnodorin B],,,,,moderately active,,
"O=C1c2c(O)cc(O)cc2O[C@H](c2ccc(O)cc2)[C@H]1[C@@H]1C(=O)c2c(O)cc(O)cc2O[C@@H]1c1ccc(O)cc1 [Compound I, neochamaejasmin B]",did not show anti-RSV effect,,,29.9,,did not,-
